# Active and inactive are the calls of the source.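 The calls were made as follows: active = half-maximal concentration for the rise in caspase light signal at or below ten times the top tested dose; inconclusive = flat fit between 30% and 70% activity, or unreliable curve fit; inactive = the rest.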
# Tested on: MEF A1-2A-BIM cells, caspase 3/7 luminescence, 3 h
# Experiment: caspase activation in A1-2A-BIM MEF cells, dose response, A1 inhibitor project, cell-based, luminescence, retest (AID 2765)
row,Compound,EC50
1,O=C(NCc1ccc(/C=N\NC(=O)C(=O)Nc2ccccc2Br)o1)C(=O)Nc1ccccc1,> 35 µM (inactive)
2,COc1ccc2[nH]c(=O)c(-c3nnn(-c4ccccc4)n3)cc2c1,> 35 µM (inactive)
3,O=C(NC1CCCc2ccccc21)c1ccccc1OC(F)F (configuration not stated),> 35 µM (inactive)
4,O=C(O)CCN1C(=O)/C(=C\c2ccncc2)SC1=S,> 35 µM (inactive)
5,COc1ccc(CCNCC(C)c2ccccc2)cc1 (configuration not stated),> 35 µM (inactive)
6,Cc1[nH]n(-c2cccc(Cl)c2)c(=O)c1C=NC12CN3CN(CN(C3)C1)C2,> 35 µM (inactive)
7,Fc1ccc(NC(=S)NCc2ccccc2Cl)cc1,> 35 µM (inactive)
8,CCCn1c(=N)n(CCOc2ccc(OC)cc2)c2ccccc21,> 35 µM (inactive)
9,CN(C)CC#CCCCCCCC#CCN(C)C,> 35 µM (inactive)
10,CCN(C(=O)c1ccc2c(=O)n3c(nc2c1)CCCCC3)c1ccccc1C,> 35 µM (inactive)
11,COc1ccc2c(c1)CCc1c(C(=O)Nc3cc(C)n(Cc4ccc(Cl)cc4)n3)noc1-2,15 µM
12,COc1cc2sc(-c3ccc(S(C)(=O)=O)cc3)c(C(=O)NCCCCO)c2cc1OC,> 35 µM (inactive)
13,CC1(C(=O)NCC2CC2)C=CC2(CCCCC2)N1C(=O)c1ccccc1 (configuration not stated),> 35 µM (inactive)
14,Brc1ccc(CN2CCN(Cc3c[nH]c4ccccc34)CC2)cc1,> 35 µM (inactive)
15,CO/N=C/C(C#N)=C/c1cc(C(=O)c2ccccc2)cn1C,> 35 µM (inactive)
16,O=C(NNC(=O)c1cc(C(F)(F)F)cc(C(F)(F)F)c1)c1ccc(Cl)cc1,> 35 µM (inactive)
17,COc1ccc(N2CCN(C(=O)CCn3nnc4ccccc43)CC2)cc1,> 35 µM (inactive)
18,CCOC(=O)C(C(=O)OCC)C(C(=O)OCC)N1CCOCC1 (configuration not stated),> 35 µM (inactive)
19,Cc1cc(C)cc(NC(=O)CCN2CCCC2)c1,> 35 µM (inactive)
20,NS(=O)(=O)c1ccc(NC(=O)c2ccc3c(c2)CCCC3)cc1,> 35 µM (inactive)
21,Cc1ccc(SCCNC(=S)Nc2cc(C)ccc2C)cc1,> 35 µM (inactive)
22,COC(=O)C1SCC2C(=O)N(Cc3ccc(Cl)cc3)CC(=O)N21 (configuration not stated),> 35 µM (inactive)
23,O=C(/C=C/c1ccc(Br)cc1)c1ccc(NC2=NCCCS2)cc1,> 35 µM (inactive)
24,O=C(NCNC(=O)NC1C(=O)NC(=O)N1CO)NC1C(=O)NC(=O)N1CO (configuration not stated),> 35 µM (inactive)
25,COC(=O)c1ccc2c(c1)C(C)(C)C(/C=C/c1ccc(O)cc1)=[N+]2C,15.2 µM

row,Compound,EC50
1,O=C(Nc1ccc(Br)cn1)c1cccc2c1-c1ccccc1C2=O,> 35 µM (inactive)
2,CCOC(=O)/C(=C\c1ccc([N+](=O)[O-])cc1)C(=O)c1cc(C(C)=O)c(Nc2ccccc2)s1,1.9 µM
3,CCCCN1C(=O)C(NC(C)=O)c2cc(Br)ccc21 (configuration not stated),> 35 µM (inactive)
4,O=C(CCCCCn1c(=O)[nH]c2ccsc2c1=O)N1CCN(C2CCCCC2)CC1,> 35 µM (inactive)
5,O=C(Nc1ccc2oc(-c3ccccc3F)nc2c1)c1ccccc1F,> 35 µM (inactive)
6,CSc1cccc(NS(=O)(=O)c2cn(C)cn2)c1,> 35 µM (inactive)
7,O=C(NCc1ccccc1)c1ccc(C(=O)N(C2CCCCC2)C2CCCCC2)cc1,> 35 µM (inactive)
8,O=C(COC(=O)Cc1ccccc1[N+](=O)[O-])NCc1ccc(Cl)cc1,> 35 µM (inactive)
9,c1ccc(-c2sc3ccccc3c2-c2ccc(OCCN3CCOCC3)cc2)cc1,> 35 µM (inactive)
10,CNC(=S)NC1(C)CCS(=O)(=O)C1 (configuration not stated),> 35 µM (inactive)
11,Cc1ccc(-c2csc(N=C(N)N)n2)cc1,> 35 µM (inactive)
12,CCN(CC)CCCNC(=S)N1CCC(c2nc3ccccc3[nH]2)CC1,> 35 µM (inactive)
13,C/C(=N\NC(=O)CCC(=O)NCc1ccccc1)c1ccco1,> 35 µM (inactive)
14,CN(C)c1ccc(NC(=O)C2CCCN(S(=O)(=O)c3ccccc3)C2)cc1 (configuration not stated),> 35 µM (inactive)
15,Cc1cc(NC(=O)COC(=O)C(Cc2ccccc2)NC(=O)c2ccco2)no1 (configuration not stated),> 35 µM (inactive)
16,CC1CC(C)CN(C(=O)c2ccc(-c3ccc([N+](=O)[O-])cc3)o2)C1 (configuration not stated),> 35 µM (inactive)
17,COC(=O)C1=C(C(=O)OC)[C@@H]2N(C)c3ccc(OC)cc3[C@@]23C[C@@H](C(=O)OC)N(C(=O)c2ccco2)C3=N1,> 35 µM (inactive)
18,C#CCn1ccc(O)c(Cc2ccccc2)c1=O,> 35 µM (inactive)
19,COc1ccc(C2Nc3ccc4ccccc4c3-c3c2c(=O)oc2ccccc32)cc1 (configuration not stated),11 µM
20,O=C(c1ccccc1)c1n[nH]c(-c2ccccc2)cc1=O,> 35 µM (inactive)
21,CCCn1cc(S(=O)(=O)c2ccc(C)cc2)c(=O)c2cc(OC)c(OC)cc21,> 35 µM (inactive)
22,FC(F)(F)c1cccc(Cc2noc(CN3CCCC(OCc4ccccn4)C3)n2)c1 (configuration not stated),> 35 µM (inactive)
23,CCS(=O)(=O)c1ncc(Cl)c(C(=O)Nc2ccc(C)cc2)n1,> 35 µM (inactive)
24,CC1(C)c2cc(O)ccc2OC1N1CCOCC1 (configuration not stated),> 35 µM (inactive)
25,C=CCNC(=O)CSc1nc2sc3c(c2c(=O)n1CCC)CCC3,> 35 µM (inactive)

row,Compound,EC50
1,O=C(NCCCNc1ccc(C(F)(F)F)cc1[N+](=O)[O-])c1ccc(F)cc1,> 35 µM (inactive)
2,CCc1ccc2nc(N(CCCN(C)C)C(=O)c3ccc(S(=O)(=O)N4CCc5ccccc5C4)cc3)sc2c1,> 35 µM (inactive)
3,C=CCOc1c(Br)cc(CNc2ccc3[nH]c(=O)[nH]c3c2)cc1OCC,> 35 µM (inactive)
4,Cc1ccc(C=C2C(Cl)=C(Cl)C(Cl)=C2Cl)cc1,7.19 µM
5,N#Cc1cccnc1N1CCN(C(=O)c2cccc3c2C(=O)c2ccc(-c4ccc(Cl)c(C(F)(F)F)c4)cc2S3(=O)=O)CC1,> 35 µM (inactive)
6,Cc1nc(-c2ccc(F)cc2)c(CC(=O)N(C)CC(=O)Nc2ccccc2Cl)s1,> 35 µM (inactive)
7,NS(=O)(=O)c1ccc(N/N=C/c2cn(-c3ccccc3)nc2-c2ccccc2)c([N+](=O)[O-])c1,27.1 µM
8,CCN1C(=O)/C(=C2\Sc3ccccc3N2CC)OC1=S,> 35 µM (inactive)
9,COc1ccccc1NC(=O)Nc1c(C)n(C)n(-c2ccccc2)c1=O,> 35 µM (inactive)
10,S=C(Nc1ccccc1)N1N=C(c2cccs2)CC1c1cccs1 (configuration not stated),> 35 µM (inactive)
11,O=C1CC(C(=O)Nc2ccccc2)C2(CCCCC2)O1 (configuration not stated),> 35 µM (inactive)
12,CCOC(=O)CCCNS(=O)(=O)c1c(C)ccc2nsnc12,> 35 µM (inactive)
13,CN(c1ccccc1)c1ccc(/C=C/[N+](=O)[O-])cc1,12.6 µM
14,CNC(=O)Nc1ccc(Cn2cc(C(F)(F)F)ccc2=O)cc1,> 35 µM (inactive)
15,CN(Cc1ccc(F)cc1)C(=O)CNC(=O)C1CCCCC1,> 35 µM (inactive)
16,O=C(COc1ccccc1[N+](=O)[O-])Nc1ccc(NC(=O)c2cc3ccccc3o2)cc1,27.4 µM
17,Cc1cc(=O)oc2c1c(C)nn2-c1ccc(Cl)cc1,> 35 µM (inactive)
18,CCOc1ccc(NC(=S)NC(=O)/C=C/c2ccc(C)cc2)c([N+](=O)[O-])c1,31.5 µM
19,CC(CC(=O)N1CCN(c2cccc(Cl)c2)CC1)S(=O)(=O)c1ccc2c(c1)NC(=O)CO2 (configuration not stated),> 35 µM (inactive)
20,CN(CCc1ccccc1)C(=O)c1cccc(NC(=O)Cc2cccc([N+](=O)[O-])c2)c1,> 35 µM (inactive)
21,CCOC(=O)c1sc(NC(=O)CSc2nc(C)cc(C)c2C#N)c(C#N)c1C,> 35 µM (inactive)
22,Cc1ccc(C(C[N+](=O)[O-])c2c(C)[nH]n(-c3ccccc3)c2=O)cc1 (configuration not stated),> 35 µM (inactive)
23,C=C1C(=O)O[C@@H]2C[C@@H](C)[C@@H]3C=CC(=O)[C@@]3(C)[C@@H](OC(C)=O)[C@H]12,> 35 µM (inactive)
24,O=C(Nc1ccc(S(=O)(=O)N2CCOCC2)cc1)c1ccco1,> 35 µM (inactive)
25,O=C(CCl)N=c1sccn1Cc1ccccc1Cl,> 35 µM (inactive)

row,Compound,EC50
1,COCCNC(=O)C(c1ccco1)N(C(=O)Cn1nnc2ccccc21)c1ccc(C)cc1C (configuration not stated),> 35 µM (inactive)
2,CCOc1ccc(Nc2cc(C)nc3nc(C)nn23)cc1,> 35 µM (inactive)
3,CC(=O)Nc1ccc(S(=O)(=O)NCCc2ccccn2)cc1,> 35 µM (inactive)
4,O=S1(=O)C=C(Sc2nc3cc(Cl)ccc3o2)c2ccccc21,> 35 µM (inactive)
5,CONC(=O)c1cc(OCC(F)(F)F)ccc1OCC(F)(F)F,> 35 µM (inactive)
6,Cc1cccc(NC(=O)CSc2nnc(CNC(=O)c3ccc(S(=O)(=O)N(C)C)cc3)n2-c2ccc(F)cc2)c1,> 35 µM (inactive)
7,COc1ccc(CC(=O)NCCN2CCOCC2)cc1,> 35 µM (inactive)
8,CN(C)CCN(C(=O)/C=C/c1cccs1)c1nc2c(F)cc(F)cc2s1,36.1 µM
9,CCOC(=O)/C=c1\s/c(=C\c2ccc(C#N)cc2)c(=O)n1CC(=O)Nc1cccc(C)c1C,3.13 µM
10,COc1ccc(-n2ncc3c2CC(C)(C)CC3NC(=O)Cc2nonc2C)cc1 (configuration not stated),> 35 µM (inactive)
11,Cc1coc(NC(=O)CSc2nc(-c3ccc(Cl)cc3)cc(C(F)(F)F)c2C#N)n1,> 35 µM (inactive)
12,CCn1c(CNc2ccc(F)cc2)nnc1SCC(=O)Nc1ccccc1OC,> 35 µM (inactive)
13,O=C(NCc1ccccc1Br)c1cccc2c1C(=O)c1ccc(-c3ccc(OC(F)(F)F)cc3)cc1S2(=O)=O,> 35 µM (inactive)
14,CCOCCCNC(=O)C1(O)c2cc(Br)ccc2NC(=O)N1c1ccc(CC)cc1 (configuration not stated),> 35 µM (inactive)
15,CCN(CC)CCCN=C(C)c1c(O)n(-c2ccc(C)cc2)c(=O)[nH]c1=O,> 35 µM (inactive)
16,CC(C)CN(C(=O)C1CSC2(C)CCC(=O)N12)c1c(N)n(Cc2ccccc2)c(=O)[nH]c1=O (configuration not stated),> 35 µM (inactive)
17,OCc1ccc(OCCCOc2cccc3cccnc23)cc1,> 35 µM (inactive)
18,Nc1nonc1-n1nnc(C(=O)N/N=C/c2ccc(Br)cc2)c1CN1CCOCC1,> 35 µM (inactive)
19,Cc1ccc(S(=O)(=O)NCC(=O)OC2CCOC2=O)cc1 (configuration not stated),> 35 µM (inactive)
20,Cc1cc(C)n(S(=O)(=O)c2ccc(C)c(C)c2C)n1,> 35 µM (inactive)
21,COc1cc2c(cc1OC)C(C)N(C(=O)c1cc3c(s1)-c1ccccc1OC3)CC2 (configuration not stated),> 35 µM (inactive)
22,N#C/C(=C/c1ccc(N2CCOCC2)o1)c1ccc(Br)cc1,> 35 µM (inactive)

# From PubChem BioAssay AID2765 (Broad Institute, 2010)
